One test addresses T1, 6XHIS-ARV1-N98 K84A (Homo sapiens, UniProt Q9H2C2, K84A).
T1 construct: Expressing amino-terminal 98 amino acids of ARV1; made in house; host or cells: E. coli BL21 (pET-28a(+))
T1 sequence (Q9H2C2 1-98 K84A): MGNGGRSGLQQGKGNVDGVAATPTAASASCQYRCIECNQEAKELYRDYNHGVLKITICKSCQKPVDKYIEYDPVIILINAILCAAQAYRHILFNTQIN
Briefly: Lipid overlay far western, site-directed mutant. The test is classed as binding. To be noted: compared to the ARV1-N98 protein. Here is the method:
(§1) Lipid overlays were blocked in TBST-BSA (100 mM Tris–HCl buffer, pH 7.5, 150 mM NaCl, 0.5% Tween 20, 3% bovine serum albumin) for 1 h and subsequently washed eight separate times with TBST for 2 min each. Overlays were incubated with 0.5 μg/ml GST-tagged or 6XHIS-tagged proteins in 3% TBST-BSA buffer containing 0.1% Triton X-100, for 1 h at room temperature and washed as above. Overlays were incubated with either anti-GST or anti-6XHIS monoclonal antibodies at a 1:1000 dilution in TBST-BSA for 1 h at room temperature followed by eight washes in TBST. Overlays were visualized using Immobilon Western Chemiluminescent horseradish peroxidase substrate and protein–lipid interaction was detected using a GE ImageQuant LAS 3000 imager.

The next test has as its target T2, 6XHIS-ARV1-N98 C34/C37A (Homo sapiens, UniProt Q9H2C2, C34A/C37A).
T2 construct: Expressing amino-terminal 98 amino acids of ARV1; made in house; host or cells: E. coli BL21 (pET-28a(+))
T2 sequence (Q9H2C2 1-98 C34A/C37A): T1 sequence (Q9H2C2 1-98 K84A) with C34A, C37A, A84K
The experiment in a line: Lipid overlay far western, site-directed mutant. The test is classed as binding. The settings on record: compared to the ARV1-N98 protein. Here is the method:
as §1

The next test concerns the target T3, 6XHIS-ARV1-N98 K67A (Homo sapiens, UniProt Q9H2C2, K67A).
T3 construct: Expressing amino-terminal 98 amino acids of ARV1; made in house; host or cells: E. coli BL21 (pET-28a(+))
T3 sequence (Q9H2C2 1-98 K67A): T1 sequence (Q9H2C2 1-98 K84A) with K67A, A84K
The experiment in a line: Lipid overlay far western, site-directed mutant. To be noted: compared to the ARV1-N98 protein. The test is classed as binding. Here is the method:
as §1

The target of test [1] is T4, GST-Annexin A2 (Homo sapiens, UniProt P07355). The experiment in a line: Lipid overlay far western (positive control protein). The test is classed as binding. As for the experimental part:
as §1

The next test has as its target T5, GST-ARV1-N50 (Homo sapiens, UniProt Q9H2C2).
T5 construct: Expresses amino-terminal 50 amino acids of ARV1; made in house; host or cells: E. coli BL21 (pGEX-4T1)
T5 sequence (Q9H2C2 1-50): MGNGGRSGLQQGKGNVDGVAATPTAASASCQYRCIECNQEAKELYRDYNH
Briefly: Lipid overlay far western, truncation. The test is classed as binding. To be noted: compared to ARV1-N98 / ARV1-N70. As for the experimental part:
as §1

The target of another test is T6, GST-ARV1-N70 (Homo sapiens, UniProt Q9H2C2).
T6 construct: Expresses amino-terminal 70 amino acids of ARV1; made in house; host or cells: E. coli BL21 (pGEX-4T1)
T6 sequence (Q9H2C2 1-70): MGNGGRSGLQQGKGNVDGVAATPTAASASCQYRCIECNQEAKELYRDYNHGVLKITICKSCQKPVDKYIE
Briefly: Lipid overlay far western, truncation. The test is classed as binding. To be noted: compared to ARV1-N98. As for the experimental part:
as §1

Test [2] deals with T7, GST-ARV1 (full-length ARV1) (Homo sapiens, UniProt Q9H2C2).
T7 construct: Expresses full length ARV1; made in house; host or cells: E. coli BL21 (pGEX-4T1)
T7 sequence (Q9H2C2 1-271): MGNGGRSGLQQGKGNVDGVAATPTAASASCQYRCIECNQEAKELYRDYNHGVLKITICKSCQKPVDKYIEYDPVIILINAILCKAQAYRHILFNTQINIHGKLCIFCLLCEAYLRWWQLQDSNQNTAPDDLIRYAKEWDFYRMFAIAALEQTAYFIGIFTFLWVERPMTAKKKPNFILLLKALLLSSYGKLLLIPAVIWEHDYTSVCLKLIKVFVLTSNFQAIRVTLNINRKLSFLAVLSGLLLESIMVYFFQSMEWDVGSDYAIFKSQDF
Briefly: Lipid overlay far western. The test is classed as binding. As for the experimental part: as §1

A further test has as its target T8, GST-ARV1-N98 (Homo sapiens, UniProt Q9H2C2).
T8 construct: Expresses amino-terminal 98 amino acids of ARV1; made in house; host or cells: E. coli BL21 (pGEX-4T1)
T8 sequence (Q9H2C2 1-98): T1 sequence (Q9H2C2 1-98 K84A) with A84K
The experiment in a line: Lipid overlay far western. The test is classed as binding. As for the experimental part: as §1

The target in test [3] is T7, GST-ARV1 (full-length ARV1). Briefly: Protein-lipid liposome binding assay (ultracentrifugation, Western blot). As for the experimental part:
(§2) Lyophilized lipids were reconstituted in chloroform at 10 mg/ml and stored in glass tubes with Teflon tops at −20 °C until use. One milliliter of 10 mg/ml stock was dried under a stream of nitrogen in a glass tube until a lipid cake/film was formed. The lipid cake was then rehydrated in BLT rehydration buffer (5 mM Tris/HCl, pH 7.4, containing 150 mM NaCl) to a concentration of 1 mg/ml. Lipid suspensions were subjected to three freeze/thaw cycles using a dry ice ethanol/[…] water bath to encapsulate the buffer and improve liposome formation. The suspension and lipid extruder were equilibrated to temperature for 10 min and liposomes were extruded using […] polycarbonate membranes (Avestin). Liposomes were made by mixing stock lipid PL (1 mg/ml) with PC (10 mg/ml).
(§3) Cholesterol composition liposomes were rehydrated with cholesterol rehydration buffer (10 mM Hepes, pH 7.4, containing 150 mM KCl).
(§4) Liposomes were serial diluted in floatation buffer (100 mM NaCl, 2 mM EDTA, pH 5.5) to a final concentration of 0.1 mg/ml. Nine hundred microliters of liposome solution was placed in clear ultracentrifuge tubes and mixed with 100 μl of 0.01 μg/ml of protein. The liposome/protein solution was incubated at room temperature for 1 h with occasional shaking. An initial 100 μl of liposome/protein solution (liposomes) was removed and the remaining 900 μl was centrifuged at 50,000g for 20 min at 4 °C. The pellet was resuspended in 800 μl of fresh floatation buffer, centrifuged as above, and 800 μl of supernatant was removed (wash 1). This was repeated a second time and again 800 μl of supernatant was removed (wash 2). The final pellet was resuspended in 100 μl of floatation buffer plus SDS treatment buffer (pellet). Thirty microliters of each fraction was run on a 15% SDS-PAGE gel and probed with an anti-GST monoclonal antibody at a 1:1500 dilution.
Background: Immunoblotting shows a protein as a band on a membrane.

The target in test [4] is T9, GST-ARV1-N98 (N-terminal 98 amino acids, AHD) (Homo sapiens, UniProt Q9H2C2).
T9 construct: Expresses amino-terminal 98 amino acids of ARV1; made in house; host or cells: E. coli BL21 (pGEX-4T1)
T9 sequence (Q9H2C2 1-98): T1 sequence (Q9H2C2 1-98 K84A) with A84K
The test is described as above. Here is the method: as §2, §3, §4

Test [5] concerns the target T4, GST-Annexin A2. The experiment in a line: Protein-lipid liposome binding assay (positive control protein). The settings on record: protein detected in final pellet. Here is the method:
as §2, §4

Another test addresses T10, 6XHIS-ARV1-N98 (Homo sapiens, UniProt Q9H2C2).
T10 construct: made in house; host or cells: E. coli BL21
T10 sequence (Q9H2C2 1-98): T1 sequence (Q9H2C2 1-98 K84A) with A84K
Briefly: HTRF phospholipid lipid-binding assay. To be noted: biotinylated lipid (Bio-PL) titrated, 0.75 μM protein; lipid labels mean the biotinylated lipids. An excerpt:
An HTRF assay was developed for 6XHIS-ARV1-N98-lipid binding. HTRF measures analyte interactions through fluorescence resonance energy transfer technology and time-resolved measurements ([53]). The interaction between two molecules can be quantified through binding each individual molecule involved with a fluorescent label and then analyzing the transfer of energy between the initial donor fluorophore and the secondary acceptor fluorophore. Following excitation of the first fluorophore, transfer of energy can only occur if the molecules bound with the fluorescent tags are within proximity to each other.
Assays were plated in 384-well flat bottom microplates (Greiner Bio, catalog #784075-25). Proteins were diluted using binding buffer (20 mM Hepes buffer, pH 7.2, containing 0.1% BSA, and 0.01% Tween20) to a stock concentration of 0.75 μM, and biotinylated phospholipids were dispensed, dried under nitrogen gas, and resuspended in binding buffer to a stock concentration of 50 μM. The lipid stock solution was diluted by 1:2 for a series of 12 serial dilutions. For the assay, in sequential order, 6 μl of binding buffer was loaded into the plate in triplicate for each dilution of phospholipid. To this, 2 μl of 0.75 μM 6XHIS-ARV1-N98 was added, followed by 2 μl of biotinylated phospholipid. Immediately following each addition loaded into the plate, the plate was centrifuged for 1 min at 1000 rpm to bring the contents to the bottom of the well. Next, detection antibodies were mixed with detection buffer (20 mM Hepes buffer, pH 8.5, containing 0.01% BSA and 200 mM KF). […] Plates were read on a PerkinElmer EnVision Xcite Multilabel plate reader.
Curves were logarithmically transformed and normalized to a common scale before being fit with a nonlinear regression of the agonist against the normalized response. […] For phospholipid competition analysis, IC50; M values were determined using nonlinear regression of the inhibitor against normalized response.

[6] abbreviates: lipid-embedded membrane strips, incl. sphingolipid strip.
The mark [7] stands for this setting: PIP lipid membrane strip, 100pmol-1.56pmol per spot.
The mark [8] stands for this setting: liposomes containing 10% and 20% cholesterol.
Where [9] appears, read: liposomes containing 30 to 50% cholesterol.
[10] abbreviates: protein detected in final pellet.

Substitutions are numbered along the chain they refer to.

T4 sequence (P07355 whole entry): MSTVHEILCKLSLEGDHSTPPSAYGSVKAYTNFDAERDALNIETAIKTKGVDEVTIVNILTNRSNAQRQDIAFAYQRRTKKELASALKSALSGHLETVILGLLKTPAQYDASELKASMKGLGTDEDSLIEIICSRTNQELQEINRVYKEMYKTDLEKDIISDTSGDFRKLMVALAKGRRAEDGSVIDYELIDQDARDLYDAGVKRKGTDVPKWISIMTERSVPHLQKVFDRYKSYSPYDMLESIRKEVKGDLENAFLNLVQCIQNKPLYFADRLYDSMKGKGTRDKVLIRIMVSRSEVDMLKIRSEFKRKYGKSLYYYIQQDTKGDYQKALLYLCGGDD

`CCCCCC(=O)O[C@H](COC(=O)CCCCCNC(=O)CCCC[C@@H]1SC[C@@H]2NC(=O)N[C@@H]21)COP(=O)(O)O[C@@H]1[C@H](O)[C@H](O)[C@@H](OP(=O)(O)O)[C@H](OP(=O)(O)O)[C@H]1O` [PI(4,5)P2, reference compound]: the results for the “change of lipid-protein interaction” value on 6XHIS-ARV1-N98 K84A, on 6XHIS-ARV1-N98 C34/C37A and at 6XHIS-ARV1-N98 K67A were “increased interactions”, “enhanced interactions” and “increased interactions”, respectively. Besides, the lipid-protein interaction entry on GST-Annexin A2 [1] (setting [6]) is given as “interacted”.
For `CCCCCC(=O)O[C@H](COC(=O)CCCCCNC(=O)CCCC[C@@H]1SC[C@@H]2NC(=O)N[C@@H]21)COP(=O)(O)O[C@H]1[C@H](O)[C@@H](OP(=O)(O)O)[C@H](O)[C@@H](O)[C@H]1O` [PI(5)P, reference compound], the entries for the “change of lipid-protein interaction” value at GST-ARV1-N50 and on GST-ARV1-N70 were “eliminated” and “reduced interactions”, respectively. Further, the lipid-protein interaction result on GST-Annexin A2 [1] (setting [7]) is “strongest interactions”; in [2] (setting [7]) it was “interacted”; at GST-ARV1-N98 (setting [7]) it was “interacted”.
On to `CC(C)CCC[C@@H](C)[C@H]1CC[C@H]2[C@@H]3CC=C4C[C@@H](O)CC[C@]4(C)[C@H]3CC[C@]12C` [cholesterol], for which the “binding to PC:Chol liposomes” value is “bound” in test [3] (setting [8]), “neither ARV1 nor ARV1-N98 associated” in test [3] (setting [9]), “bound” in test [4] (setting [8]) and “neither ARV1 nor ARV1-N98 associated” in test [4] (setting [9]). The lipid-protein interaction entry (in test [2] (setting [6]); at GST-ARV1-N98 (setting [6])) was “not seen” each time.
Take `CCCCCCCC/C=C\CCCCCCCC(=O)OC[C@@H](O)COP(=O)(O)O` [lyso-phosphatidic acid]: the lipid-protein interaction entry (in test [2] (setting [6]); on GST-ARV1-N98 (setting [6])) was “not seen” in each case.
As to `CCCCCCCCCCCCCC[C@@H](O)[C@@H](O)[C@@H](N)CO` [phytosphingosine], the lipid-protein interaction result (in test [2] (setting [6]); at GST-ARV1-N98 (setting [6])) was “not” in each case.
Consider `CCCCCC(=O)O[C@H](COC(=O)CCCCCNC(=O)CCCC[C@@H]1SC[C@@H]2NC(=O)N[C@@H]21)COP(=O)(O)O[C@@H]1[C@H](O)[C@H](OP(=O)(O)O)[C@@H](O)[C@H](O)[C@H]1O` [reference compound], for which the results for the “change of lipid-protein interaction” value at GST-ARV1-N50 and on GST-ARV1-N70 were “enhanced” and “reduced interactions”, respectively. The figures for the lipid-protein interaction result (on GST-Annexin A2 [1] (setting [7]); in test [2] (setting [7]); at GST-ARV1-N98 (setting [7])) were “strongest interactions”, “interacted” and “interacted”, respectively.
Turning to `CCCCCCCCCCCCC/C=C/[C@@H](O)[C@@H](N)COP(=O)(O)O` [sphingosine-1-phosphate], the lipid-protein interaction result (in test [2] (setting [6]); on GST-ARV1-N98 (setting [6])) was “not” in each case.
With `CCCCCCCCCCCCC/C=C/[C@@H](O)[C@@H](N)CO` [sphingosine], the lipid-protein interaction entry (in test [2] (setting [6]); at GST-ARV1-N98 (setting [6])) was “not” in each case.
In the case of PI(3,4,5)P3, the “change of lipid-protein interaction” value on 6XHIS-ARV1-N98 K84A and at 6XHIS-ARV1-N98 K67A was “increased interactions” throughout. In addition, at GST-Annexin A2 [1] (setting [6]), the lipid-protein interaction result was “interacted”.
Regarding ceramide, the lipid-protein interaction result (in [2] (setting [6]); on GST-ARV1-N98 (setting [6])) was “not” in each case.
With lyso-phosphatidylcholine, the lipid-protein interaction entry (in test [2] (setting [6]); at GST-ARV1-N98 (setting [6])) was “not seen” each time.
Consider “phosphatidylinositol [PI, reference compound]”, for which the “binding to PC:PL liposomes” value (in test [3] (setting [10]); in test [4] (setting [10]); on GST-Annexin A2 [5]) was “not” in each case. The EC50 (as a rule, the concentration giving half of the maximal effect) on 6XHIS-ARV1-N98 came to 12 µM.

Source of the values: article PMC11952846, “The sterol-regulating human ARV1 binds cholesterol and phospholipids through its conserved ARV1 homology domain” (The Journal of Biological Chemistry, 2025).
